Measured values published in ChEMBL document CHEMBL5537146, “Novel orally bioavailable piperidine derivatives as extracellular arginase inhibitors developed by a ring expansion” (Eur J Med Chem, 2024).

Columns and labels:
[1] = Inhibition of mouse intracellular ARG in M2 polarized C57BL/6 mouse BMDM cells incubated for 24 hrs by absorbance based analysis; format: cell-based; settings: C57BL/6, BMDM
[2] = Volume of distribution at steady state in Sprague-Dawley rat at 3 mg/kg, iv measured over 24 hrs by LC-MS/MS analysis; format: ADME, organism-based; settings: in vivo, read-out: Vdss
Arginase-1 [3] = target: T1, Arginase-1 (Homo sapiens, UniProt P05089); test: Inhibition of human recombinant ARG1 expressed in Escherichia coli using L-arginine hydrochloride as substrate assessed as inhibition of urea production incubated for 20 mins by colorimetric analysis
T1 sequence (P05089 whole entry): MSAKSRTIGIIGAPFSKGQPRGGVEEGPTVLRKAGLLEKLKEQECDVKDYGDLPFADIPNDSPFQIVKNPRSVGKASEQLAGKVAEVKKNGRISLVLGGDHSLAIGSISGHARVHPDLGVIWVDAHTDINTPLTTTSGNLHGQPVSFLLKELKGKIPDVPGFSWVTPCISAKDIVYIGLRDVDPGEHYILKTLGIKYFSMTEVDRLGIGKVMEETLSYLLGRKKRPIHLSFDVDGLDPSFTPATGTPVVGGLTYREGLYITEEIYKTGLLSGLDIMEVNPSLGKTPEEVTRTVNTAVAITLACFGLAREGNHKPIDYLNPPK

[4] = Clearance in Sprague-Dawley rat at 3 mg/kg, iv measured over 24 hrs by LC-MS/MS analysis; format: ADME, organism-based; settings: in vivo
[5] = Terminal elimination half-life in Sprague-Dawley rat at 3 mg/kg, iv measured over 24 hrs by LC-MS/MS analysis; format: ADME, organism-based; settings: in vivo, read-out: beta t1/2 (converted)
[6] = Tmax in Sprague-Dawley rat at 10 mg/kg, po measured over 24 hrs by LC-MS/MS analysis; format: ADME, organism-based; settings: in vivo
[7] = Oral bioavailability in Sprague-Dawley rat at 10 mg/kg measured over 24 hrs by LC-MS/MS analysis; format: ADME, organism-based; settings: in vivo
[8] = Drug metabolism in Sprague-Dawley rat plasma assessed as increase in arginine level by measuring fold change at 10 mg/kg, po measured for 24 hrs by LC-MS/MS analysis; format: ADME, organism-based; settings: in vivo
[9] = Drug metabolism in Balb/c mouse plasma assessed as (3R,5S)-3-amino-5-(2-boronoethyl)piperidine-3-carboxylic acid metabolite formation at 100 mg/kg, po measured for 24 hrs by LC-MS/MS analysis; format: ADME, organism-based; settings: in vivo
[10] = Drug metabolism in Balb/c mouse plasma assessed as increase in arginine level by measuring fold change at 100 mg/kg, po measured for 24 hrs […] by LC-MS/MS analysis; format: ADME, organism-based; settings: in vivo
[11] = Oral bioavailability in Balb/c mouse at 100 mg/kg measured for 24 hrs by LC-MS/MS analysis; format: ADME, organism-based; settings: in vivo
Arginase-1 [12] = target: T1, Arginase-1; test: Inhibition of extracellular arginase (unknown origin)
[13] = Genotoxicity in Salmonella typhimurium TA98 in presence of S9 fraction by Ames test; format: toxicity; settings: salmonella enterica subsp. enterica serovar typhimurium
[14] = target: Voltage-gated inwardly rectifying potassium channel KCNH2 (Homo sapiens, UniProt Q12809); test: Inhibition of hERG; format: toxicity
Voltage-gated inwardly rectifying potassium channel KCNH2, sequence (Q12809 whole entry): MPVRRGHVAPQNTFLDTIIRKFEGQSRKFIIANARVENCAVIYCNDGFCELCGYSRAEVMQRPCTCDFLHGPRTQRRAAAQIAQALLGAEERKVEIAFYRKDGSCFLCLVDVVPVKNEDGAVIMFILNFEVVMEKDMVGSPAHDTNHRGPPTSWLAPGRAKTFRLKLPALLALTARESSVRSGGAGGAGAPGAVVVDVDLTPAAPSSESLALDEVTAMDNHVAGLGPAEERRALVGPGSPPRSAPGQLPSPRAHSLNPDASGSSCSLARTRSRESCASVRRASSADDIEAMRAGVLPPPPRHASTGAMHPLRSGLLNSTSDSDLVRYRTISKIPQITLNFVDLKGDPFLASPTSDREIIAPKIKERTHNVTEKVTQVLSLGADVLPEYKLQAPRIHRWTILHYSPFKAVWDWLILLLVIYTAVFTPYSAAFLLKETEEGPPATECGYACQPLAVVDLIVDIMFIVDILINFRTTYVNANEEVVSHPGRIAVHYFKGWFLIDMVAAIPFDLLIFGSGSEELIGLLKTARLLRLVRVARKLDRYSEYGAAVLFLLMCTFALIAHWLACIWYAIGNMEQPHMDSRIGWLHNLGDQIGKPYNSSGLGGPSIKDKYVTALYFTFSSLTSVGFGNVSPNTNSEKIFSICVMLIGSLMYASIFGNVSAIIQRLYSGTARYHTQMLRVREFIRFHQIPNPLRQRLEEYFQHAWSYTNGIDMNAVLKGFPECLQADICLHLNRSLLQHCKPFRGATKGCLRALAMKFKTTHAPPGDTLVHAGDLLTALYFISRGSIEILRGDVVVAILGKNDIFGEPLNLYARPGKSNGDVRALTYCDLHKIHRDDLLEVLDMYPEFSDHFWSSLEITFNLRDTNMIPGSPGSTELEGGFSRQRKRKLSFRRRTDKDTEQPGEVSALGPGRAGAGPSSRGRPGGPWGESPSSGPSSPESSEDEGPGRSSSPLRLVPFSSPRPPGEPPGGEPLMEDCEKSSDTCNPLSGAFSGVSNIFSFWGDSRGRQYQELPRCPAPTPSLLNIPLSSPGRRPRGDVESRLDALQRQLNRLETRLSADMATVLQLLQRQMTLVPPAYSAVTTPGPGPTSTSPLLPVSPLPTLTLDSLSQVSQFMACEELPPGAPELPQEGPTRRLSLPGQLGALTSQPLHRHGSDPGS

[15] = Toxicity in Sprague-Dawley rat assessed as change in body weight measured after 7 days; settings: in vivo, 168 h, time 7 day
[16] = Toxicity in Sprague-Dawley rat assessed as mortality upto 1 g/Kg, po measured after 7 days; format: organism-based; settings: in vivo, 1000 mg/kg, 168 h, time 7 day
[17] = Permeability in human Caco-2 cells; format: ADME, cell-based
[18] = AUC (0 to infinity) in Sprague-Dawley rat at 10 mg/kg, po measured for 24 hrs by LC-MS/MS analysis; format: ADME, organism-based; settings: in vivo

| Structure (SMILES) | IC50 [1] | IC50 (Arginase-1 [3]) | other results |
| --- | --- | --- | --- |
| C[C@H](N)C(=O)N1C[C@H](CCCB(O)O)[C@](N)(C(=O)O)C1 | 56200 nM |  |  |
| C[C@H](N)C(=O)N1C[C@@H](CCB(O)O)C[C@](N)(C(=O)O)[C@@H]1C |  | 250 nM | Vd [2]: 0.69 L/kg; clearance [4]: 5.87 mL/min/kg; half-life [5]: 2.66 h; Tmax [6]: 1 h; bioavailability [7]: 65.6%; fold change (FC) [8]: 2 |
| C[C@H](N)C(=O)N1C[C@@H](CCB(O)O)C[C@@](N)(C(=O)O)C1 |  | > 10000 nM |  |
| CC[C@H](C)[C@H](N)C(=O)N1C[C@@H](CCB(O)O)C[C@](N)(C(=O)O)C1 | > 300000 nM | 760 nM |  |
| N[C@@H](CS)C(=O)N1C[C@@H](CCB(O)O)C[C@](N)(C(=O)O)C1 | > 300000 nM | 760 nM |  |
| N[C@@H](CO)C(=O)N1C[C@@H](CCB(O)O)C[C@](N)(C(=O)O)C1 | > 300000 nM | 280 nM |  |
| N[C@@H](Cc1c[nH]cn1)C(=O)N1C[C@@H](CCB(O)O)C[C@](N)(C(=O)O)C1 | > 300000 nM | 210 nM |  |
| COC(=O)[C@@]1(N)C[C@H](CCB(O)O)CN(C(=O)[C@H](C)N)C1 |  | > 10000 nM |  |
| NC(=O)CC[C@H](N)C(=O)N1C[C@@H](CCB(O)O)C[C@](N)(C(=O)O)C1 | > 300000 nM | 420 nM |  |
| CC(C)C[C@H](N)C(=O)N1C[C@@H](CCB(O)O)C[C@](N)(C(=O)O)C1 | > 300000 nM | 610 nM |  |
| CC(C)[C@H](N)C(=O)N1C[C@@H](CCB(O)O)C[C@](N)(C(=O)O)C1 | > 300000 nM | 360 nM |  |
| N[C@@H](Cc1ccc(O)cc1)C(=O)N1C[C@@H](CCB(O)O)C[C@](N)(C(=O)O)C1 | > 300000 nM | 280 nM |  |
| C[C@H](N)C(=O)N1C[C@@H](CCB(O)O)C[C@](N)(C(=O)O)C1 | > 300000 nM | 270 nM | Vd [2]: 0.69 L/kg; clearance [4]: 5.87 mL/min/kg; half-life [5]: 2.66 h; Tmax [6]: 1 h; bioavailability [7]: 18.8%; fold change (FC) [8]: 2; Drug metabolism [9]: Metabolite_Detected; fold change (FC) [10]: 3; bioavailability [11]: 58% |
| N[C@@H](CC(=O)O)C(=O)N1C[C@@H](CCB(O)O)C[C@](N)(C(=O)O)C1 | > 300000 nM | 650 nM |  |
| C[C@@H]1N(C(=O)[C@@H](N)CCCNC(=N)N)C[C@@H](CCB(O)O)C[C@]1(N)C(=O)O |  | 400 nM |  |
| NC(=O)NCCC[C@H](N)C(=O)N1C[C@@H](CCB(O)O)C[C@](N)(C(=O)O)C1 | > 300000 nM | 360 nM |  |
| N[C@]1(C(=O)O)C[C@H](CCB(O)O)CN(C(=O)[C@@H]2CCCN2)C1 | > 300000 nM | 350 nM |  |
| CN(C)C[C@@H]1CC[C@@H](CCB(O)O)C[C@]1(N)C(=O)O | 1100 nM | 20 nM | IC50 (Arginase-1 [12]): 20 nM |

| Structure (SMILES) | IC50 [1] | IC50 (Arginase-1 [3]) | other results |
| --- | --- | --- | --- |
| NC(=O)C[C@H](N)C(=O)N1C[C@@H](CCB(O)O)C[C@](N)(C(=O)O)C1 | > 300000 nM | 360 nM |  |
| C[C@H](N)C(=O)N1C[C@H](CCB(O)O)C[C@](N)(C(=O)O)C1 |  | > 10000 nM |  |
| NCCC[C@H](N)C(=O)N1C[C@@H](CCB(O)O)C[C@](N)(C(=O)O)C1 | > 300000 nM | 310 nM |  |
| N[C@@]1(C(=O)O)CCC[C@@H](CCB(O)O)C1 |  | 1200 nM |  |
| CSCC[C@H](N)C(=O)N1C[C@@H](CCB(O)O)C[C@](N)(C(=O)O)C1 | > 300000 nM | 400 nM |  |
| N=C(N)NCCC[C@H](N)C(=O)N1C[C@@H](CCB(O)O)C[C@](N)(C(=O)O)C1 | > 300000 nM | 160 nM | Activity [13]: Toxic; Vd [2]: 0.69 L/kg; clearance [4]: 5.87 mL/min/kg; half-life [5]: 2.66 h; Tmax [6]: 1 h; bioavailability [7]: 18.8%; fold change (FC) [8]: 2; Drug metabolism [9]: Metabolite_Detected; fold change (FC) [10]: 3; inhibition (INH) [14]: Not Active; Activity [15]: Non-Toxic; Activity [16]: Non-Toxic; permeability [17]: Impermeable |
| NCCCC[C@H](N)C(=O)N1C[C@@H](CCB(O)O)C[C@](N)(C(=O)O)C1 | > 300000 nM | 250 nM |  |
| C[C@@H](N)C(=O)N1C[C@@H](CCB(O)O)C[C@](N)(C(=O)O)C1 | > 300000 nM | 3220 nM |  |
| CCC[C@H](N)C(=O)N1C[C@@H](CCB(O)O)C[C@](N)(C(=O)O)C1 | > 300000 nM | 340 nM |  |
| Cn1cc(C[C@@H](N)C(=O)N2C[C@@H](CCB(O)O)C[C@](N)(C(=O)O)C2)c2ccccc21 | > 300000 nM | 740 nM |  |
| N[C@@]1(C(=O)O)CNC[C@@H](CCB(O)O)C1 |  | 830 nM |  |
| CNCC(=O)N1C[C@@H](CCB(O)O)C[C@](N)(C(=O)O)C1 | > 300000 nM | 420 nM |  |
| C[C@@H](O)[C@H](N)C(=O)N1C[C@@H](CCB(O)O)C[C@](N)(C(=O)O)C1 | > 300000 nM | 380 nM |  |
| NCC(=O)N1C[C@@H](CCB(O)O)C[C@](N)(C(=O)O)C1 | > 300000 nM | 250 nM | Vd [2]: 0.69 L/kg; clearance [4]: 5.87 mL/min/kg; half-life [5]: 2.66 h; Tmax [6]: 1 h; bioavailability [7]: 18.8%; fold change (FC) [8]: 2; AUC(0-inf) [18]: 2680 ng·h/mL |
| N[C@@H](Cc1ccccc1)C(=O)N1C[C@@H](CCB(O)O)C[C@](N)(C(=O)O)C1 | > 300000 nM | 240 nM | Vd [2]: 0.69 L/kg; clearance [4]: 5.87 mL/min/kg; half-life [5]: 2.66 h; Tmax [6]: 1 h; bioavailability [7]: 18.8%; fold change (FC) [8]: 2 |
| C[C@H](N)C(=O)N1C[C@H](CCB(O)O)C[C@@](N)(C(=O)O)C1 |  | > 10000 nM |  |
| N[C@@H](Cc1c[nH]c2ccccc12)C(=O)N1C[C@@H](CCB(O)O)C[C@](N)(C(=O)O)C1 | > 300000 nM | 280 nM |  |
| N[C@@H](CCC(=O)O)C(=O)N1C[C@@H](CCB(O)O)C[C@](N)(C(=O)O)C1 | > 300000 nM | 680 nM |  |
